Experimental data published in ChEMBL document CHEMBL5728342, “Heterocyclic compounds for the inhibition of pask” (2021).

Target: PAS domain-containing serine/threonine-protein kinase (Homo sapiens, UniProt Q96RG2)
Assay: FRET Assay : Table 3: In the presence of kinase and ATP, the Ulight-peptide is phosphorylated and captured by an anti-phospho-substrate antibody, which brings the Eu chelate donor and Ulight acceptor dyes into close proximity. Upon excitation at 340 nm, the Eu chelate transfers its energy to the Ulight dye, resulting in a fluorescent light emission at 665 nm. Titration of kinase at 1 mM ATP was achieved via the following protocol. After making serial three-fold dilutions of PASK (Invitrogen) in reaction buffer across the plate; 5 μl of kinase dilution and 5 μl substrate/ATP mix were added to the wells of the white Optiplate-384 (PerkinElmer). The contents of the plate were and incubated at RT for 1 h. The reaction was stopped by adding 5 μl of stop solution to each test well followed by mixing and incubation at RT for 10 minutes. 5 μl of detection mix (detection antibody diluted in detection buffer) was added; the contents of the plate were mixed and then incubated in the dark for 1 hour at RT. The signal was recorded at TR-FRET mode (665 nm/615 nm). The results were graphed to calculate the EC50.

Sequence of PAS domain-containing serine/threonine-protein kinase (Q96RG2 whole entry, the tested form may be a part): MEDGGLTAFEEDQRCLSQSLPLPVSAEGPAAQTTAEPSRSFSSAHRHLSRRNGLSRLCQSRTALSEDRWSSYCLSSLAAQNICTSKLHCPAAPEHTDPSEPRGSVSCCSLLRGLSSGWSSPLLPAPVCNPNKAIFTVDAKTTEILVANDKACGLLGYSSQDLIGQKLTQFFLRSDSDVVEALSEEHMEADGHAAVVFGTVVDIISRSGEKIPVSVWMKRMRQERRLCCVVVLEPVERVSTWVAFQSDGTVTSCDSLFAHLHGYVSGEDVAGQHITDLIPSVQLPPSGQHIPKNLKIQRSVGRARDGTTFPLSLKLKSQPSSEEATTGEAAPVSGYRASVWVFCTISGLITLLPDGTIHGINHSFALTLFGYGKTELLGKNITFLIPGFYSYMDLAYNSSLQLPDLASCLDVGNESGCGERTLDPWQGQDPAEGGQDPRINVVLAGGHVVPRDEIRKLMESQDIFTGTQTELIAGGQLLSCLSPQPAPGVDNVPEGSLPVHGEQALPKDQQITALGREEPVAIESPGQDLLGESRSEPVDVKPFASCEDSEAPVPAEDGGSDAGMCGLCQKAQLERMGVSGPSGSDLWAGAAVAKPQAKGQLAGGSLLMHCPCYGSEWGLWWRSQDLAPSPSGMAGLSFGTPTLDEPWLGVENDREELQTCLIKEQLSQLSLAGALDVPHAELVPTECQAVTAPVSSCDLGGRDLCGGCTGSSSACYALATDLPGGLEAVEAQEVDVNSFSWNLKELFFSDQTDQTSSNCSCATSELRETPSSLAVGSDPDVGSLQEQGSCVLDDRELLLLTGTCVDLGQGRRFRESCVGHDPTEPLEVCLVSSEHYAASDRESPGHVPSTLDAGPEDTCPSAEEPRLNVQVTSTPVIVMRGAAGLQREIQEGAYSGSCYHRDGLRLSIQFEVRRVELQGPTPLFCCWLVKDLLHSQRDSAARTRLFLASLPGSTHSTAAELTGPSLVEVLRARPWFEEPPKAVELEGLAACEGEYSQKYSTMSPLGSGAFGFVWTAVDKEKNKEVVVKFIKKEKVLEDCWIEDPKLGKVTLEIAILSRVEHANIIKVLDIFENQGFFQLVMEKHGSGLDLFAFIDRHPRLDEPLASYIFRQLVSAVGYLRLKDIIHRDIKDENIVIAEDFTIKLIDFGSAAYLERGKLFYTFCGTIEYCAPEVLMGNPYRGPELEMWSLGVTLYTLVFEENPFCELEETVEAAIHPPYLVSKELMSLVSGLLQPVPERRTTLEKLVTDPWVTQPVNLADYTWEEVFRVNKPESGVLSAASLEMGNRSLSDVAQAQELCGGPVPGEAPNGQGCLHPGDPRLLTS

- IC50: < 10 µM
SMILES: Nc1nn2c(c1-c1ccccn1)CC(c1ccc3c(c1)OC(F)(F)O3)=CC2=O
